{"source": "patent US20130331260A1", "about": "“Odour-Control Superabsorbent” (BASF SE, priority 2012, published 2013)", "origin": "cited, not measured here", "key": {"[1]": {"system": "Helicobacter sp."}, "[2]": {"system": "seed germination in urea-based fertiliser"}}}
{"smiles": "NP(N)(=O)NC(=O)c1ccc(F)cc1", "note": "[fluorofamide, N-[Diaminophosphinyl]-4-fluorobenzamide]", "values": [{"measurement": "antibacterial properties", "setting": "[1]", "value": "no measurable antibacterial properties"}, {"measurement": "effect on seed germination compared with non-fluorinated analogue", "setting": "[2]", "value": "worked better than its non-fluorinated analogue in most cases"}]}
